Data published in patent publication US8436047B2, “Preventive or ameliorating agent for liver disease involving hepatopathy” (Suntory Holdings Limited, priority 2004, dated 2013).

Test system: hepatopathy induced by galactosamine (GalN/LPS)
Assay: Evaluation of 5,8,11-eicosatrienoic acid ethyl ester in an animal model of hepatopathy: serum GOT after GalN/LPS
Assay type: in vivo
Conditions: male ddY mice, 10 mg/kg orally for one week, then GalN 800 mg/kg / LPS 25 μg/kg i.p., blood six hours after; control group 1024±94 IU/L
Method: Four-week-old male ddY mice were orally given 10 mg/kg of 5,8,11-eicosatrienoic acid ethyl ester (mead acid) purified from the lipid SUNTGM17 prepared in Reference Example 1 for one week, and then they were intraperitoneally given physiological saline in which D-galactosamine and lipopolysaccharide were dissolved to 800 mg/kg and 25 μg/kg and mixed (GalN/LPS). Six hours after the GalN/LPS administration, blood was drawn, serum was separated, and GPT and GOT activities in the serum were determined, which confirmed that the GOT activity was 1024±94 IU/L in the control diet group, whereas it was 413±37 IU/L in the mead acid diet group, indicating a significant suppression of hepatopathy.

For `CCCCCCCCC=CCC=CCC=CCCCC(=O)OCC` [5,8,11-eicosatrienoic acid ethyl ester], the “GOT activity in the serum” value was 413±37 IU/L.
